Where two headings read alike, the source gives them in different places. Ends that are not written are not given here.
Tests used:
mice [1] = conditions: cited from earlier work
mice [2] = assay: LPS LD50 in mouse model; format: in vivo
Method: In mouse model the LD50 of LPS depends on liver protein synthesis. […] However, in mice pretreated with β-galactosamine to inhibit liver protein synthesis, the mouse LD50 is approximately 5 nanograms (200 ng/kg), 30,000 times less. By comparison, normal humans show reactions at 2-4 nanograms of LPS per kilogram. The human LD50 for LPS is below 5 micrograms per kilogram, three orders of magnitude lower than mice. Humans are […] larger yet die at doses only double the dose that kills a 25-gram mouse. […] Human LPS sensitivity is believed to be due to mutations in sialic acid binding Ig-like lectins (siglecs). Phenotypically, knockouts of siglecs produce hyper-reactive immune system components. The missing siglec-13 and inactivated siglec-17 that are active in other primates affects control over TLR4. TLR4 is the receptor for LPS. It is also the target for HMGB1, in DAMP signaling.

humans = conditions: cited from earlier work
sepsis [3] = conditions: in vivo; cited from earlier work
Dogs = conditions: cited from earlier work
Rodents = conditions: cited from earlier work
TNFα = conditions: cited from earlier work
sepsis [4] = conditions: animal studies, as long as there is not an underlying infection; cited from earlier work

lipopolysaccharide [LPS]
LPS LD50 (mice [1]; mice pretreated with β-galactosamine to inhibit liver protein synthesis, per animal): approximately 5 nanograms | LPS LD50 (mice [1]; normal 25 gram mice, per animal): approximately 150 micrograms | LPS LD50 (mice [1]; normal 25 gram mice): ~6 mg/kg | time for LD50 dose to complete its course (mice [1]; normal 25 gram mice): 35 h | fold lower LD50 in β-galactosamine pretreated vs normal mice (mice [2]): 30,000 times | LPS LD50 (humans; average adult human, per person): 300 micrograms | LPS LD50 (humans; human): below 5 micrograms per kilogram | LPS dose at which reactions are shown (humans; normal humans): 2-4 nanograms of LPS per kilogram

ghrelin: Ghrelin, injected to rescue from sepsis (GSSFLSPEHQRVQQRKESKKPPAKLQPR; ends and bridges not checked; UniProt Q9UBU3 24-51, looked up)
rescue from sepsis (in words) (sepsis [3]): rescue from sepsis with remarkable effect

Polymyxin B sulfate
dose at which animals begin dying (Dogs): 8 mg/kg | tolerated dose (Rodents): ≥ 100 mg/kg

COc1cc(CC(C)N)c(OC)cc1I (stereo not shown) [DOI, 2,5-Dimethoxy-4-iodoamphetamine]
TNFα inhibition (in words) (TNFα): strongest TNFα inhibitor known

B1: IL-10: IL-10, injected to temper sepsis (protein, UniProt P22301 19-178, looked up)
Interleukin-10: SPGQGTQSENSCTHFPGNLPNMLRDLRDAFSRVKTFFQMKDQLDNLLLKESLLEDFKGYLGCQALSEMIQFYLEEVMPQAENQDPDIKAHVNSLGENLKTLRLRLRRCHRFLPCENKSKAVEQVKNAFNKLQEKGIYKAMSEFDIFINYIEAYMTMKIRN
effect on sepsis (in words) (sepsis [4]): effective in animal studies at tempering sepsis

From patent US20200325483A1, “SAFE DELIVERY OF CRISPR AND OTHER GENE THERAPIES TO LARGE FRACTIONS OF SOMATIC CELLS IN HUMANS AND ANIMALS” (priority 2016, published 2020)
